Values of other authors as cited in US11555007B2, “Compositions and methods for the treatment of neurological diseases” (Cellix Bio Private Limited, priority 2018, dated 2023).

System: unipolar or bipolar patients in a major depressive episode
Settings: intravenous ketamine 0.5 mg/kg versus saline; all 8 treated patients

CNC1(c2ccccc2Cl)CCCCC1=O (stereo not shown) [ketamine, 2-(2-chlorophenyl)-2-(methylamino)cyclohexan-1-one]
improvement in depressive symptoms: significant improvement in depressive symptoms
